PubChem BioAssay AID504

Target: Ras-related C3 botulinum toxin substrate 3 (Homo sapiens) (UniProt P60763)
Experiment: ligand-induced RAC3 melting temperature shift – biophysical, recombinant human protein, DSF (AID 504)
Details: recombinant RAC3, DSF thermal shift, SYPRO orange; at 10 µM; protein 2 µM; buffer 10 mM HEPES; pH 7.5; NaCl 150 mM; hits give high values

N#C/C(=C1\Nc2ccccc2S1)c1ccnc(NCCc2cccnc2)n1
Tm shift: 2.3 °C

N#CC(C(N)Sc1ccccc1N)C(C#N)C(N)Sc1ccccc1N (configuration not stated)
Tm shift: 2.4 °C
